Results: patent US11541055B2, “Inhibitors of human immunodeficiency virus replication” (ViiV Healthcare UK (No. 5) LIMITED, priority 2018, dated 2023)
pEC50: −log10 of the molar value.

Tests used:
[1] = Compound cytotoxicity, XTT-based colorimetric assay; type: cell-based; conditions: human; uninfected MT2 cells, day 4, XTT
In short: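 Run under the antiviral-assay protocol but without virus. Viability was read on day 4 and CC50 values were derived from the readout.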

[2] = tested on: recombinant NL4-3 virus (Renilla luciferase) in MT-2 cells; assay: HIV cell culture assay (antiviral activity, luciferase readout); type: cell-based; conditions: Renilla, NL43
In short: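 Antiviral EC50 was derived via the median effect equation from luciferase signal. The signal came from MT-2 cultures infected for 4–5 days with a nef-deleted, Renilla luciferase-expressing NL4-3 reporter virus (made in 293T cells) in the presence of compound dilutions.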

| Compound | CC50 at 4 days [1] [nM] | pEC50 [2] |
| --- | --- | --- |
| Cn1nc(NS(C)(=O)=O)c2c(Cl)ccc(-n3c([C@H](Cc4cc(F)cc(F)c4)NC(=O)Cn4nc(C(F)F)c5c4C(F)(F)[C@@H]4C[C@H]54)nc4cc(-c5nccnc5C5CC5)ccc4c3=O)c21 (atropisomer, axis not shown; (P)) [Example 61, N—((S)-1-((3P)-3-(4-chloro-1-methyl-3-(methylsulfonamido)-1H-indazol-7-yl)-7-(3-cyclopropylpyrazin-2-yl)-4-oxo-3,4-dihydroquinazolin-2-yl)-2-(3,5-difluorophenyl)ethyl)-2-((3bS,4aR)-3-(difluoromethyl)-5,5-difluoro-3b,4,4a,5-tetrahydro-1H-cyclopropa[3,4]cyclopenta[1,2-c]pyrazol-1-yl)acetamide] | > 500 | 9.80 |
| Cc1ccc(-c2ccc3c(=O)n(-c4ccc(Cl)c5c(NS(C)(=O)=O)nn(CC(F)(F)F)c45)c([C@H](Cc4cc(F)cc(F)c4)NC(=O)Cn4nc(C(F)F)c5c4C(F)(F)[C@@H]4C[C@H]54)nc3c2)nn1 (atropisomer, axis not shown) [Example 106, N-[(1S)-1-{3-[4-chloro-3-methanesulfonamido-1-(2,2,2-trifluoroethyl)-1H-indazol-7-yl]-7-(6-methylpyridazin-3-yl)-4-oxo-3,4-dihydroquinazolin-2-yl}-2-(3,5-difluorophenyl)ethyl]-2-[(2S,4R)-9-(difluoromethyl)-5,5-difluoro-7,8-diazatricyclo[4.3.0.0^2,^4]nona-1(6),8-dien-7-yl]acetamide] | > 500 | 10.37 |
| Cc1nnc(-c2ccc3c(=O)n(-c4ccc(Cl)c5c(NS(C)(=O)=O)nn(C)c45)c([C@H](Cc4cc(F)cc(F)c4)NC(=O)Cn4nc(C(F)F)c5c4C(F)(F)[C@@H]4C[C@H]54)nc3c2)nc1C (atropisomer, axis not shown; (P)) [Example 55, N—((S)-1-((3P)-3-(4-chloro-1-methyl-3-(methylsulfonamido)-1H-indazol-7-yl)-7-(5,6-dimethyl-1,2,4-triazin-3-yl)-4-oxo-3,4-dihydroquinazolin-2-yl)-2-(3,5-difluorophenyl)ethyl)-2-((3bS,4aR)-3-(difluoromethyl)-5,5-difluoro-3b,4,4a,5-tetrahydro-1H-cyclopropa[3,4]cyclopenta[1,2-c]pyrazol-1-yl)acetamide] | > 500 | 10.49 |
| Cc1nc(-c2ccc3c(=O)n(-c4ccc(Cl)c5c(NS(C)(=O)=O)nn(C)c45)c([C@H](Cc4cc(F)cc(F)c4)NC(=O)Cn4nc(C(F)F)c5c4C(F)(F)[C@@H]4C[C@H]54)nc3c2)cc(C(C)C)n1 (atropisomer, axis not shown; (P)) [Example 66, N—((S)-1-((3P)-3-(4-chloro-1-methyl-3-(methylsulfonamido)-1H-indazol-7-yl)-7-(6-isopropyl-2-methylpyrimidin-4-yl)-4-oxo-3,4-dihydroquinazolin-2-yl)-2-(3,5-difluorophenyl)ethyl)-2-((3bS,4aR)-3-(difluoromethyl)-5,5-difluoro-3b,4,4a,5-tetrahydro-1H-cyclopropa[3,4]cyclopenta[1,2-c]pyrazol-1-yl)acetamide] | > 500 | 9.82 |
| Cc1ncc(F)c(-c2ccc3c(=O)n(-c4ccc(Cl)c5c(NS(C)(=O)=O)nn(C)c45)c([C@H](Cc4cc(F)cc(F)c4)NC(=O)Cn4nc(C(F)F)c5c4C(F)(F)[C@@H]4C[C@H]54)nc3c2)n1 (atropisomer, axis not shown; (P)) [Example 64, N—((S)-1-((3P)-3-(4-chloro-1-methyl-3-(methylsulfonamido)-1H-indazol-7-yl)-7-(5-fluoro-2-methylpyrimidin-4-yl)-4-oxo-3,4-dihydroquinazolin-2-yl)-2-(3,5-difluorophenyl)ethyl)-2-((3bS,4aR)-3-(difluoromethyl)-5,5-difluoro-3b,4,4a,5-tetrahydro-1H-cyclopropa[3,4]cyclopenta[1,2-c]pyrazol-1-yl)acetamide] | > 500 | 10.03 |
